These results are taken from patent US7560571B2, “Substituted pyrroles and imidazoles, compositions containing same, manufacturing process therefor and use thereof” (Aventis Pharma S.A., priority 2005, dated 2009).

One series deals with T1, human KDR enzyme (Homo sapiens, UniProt P35968).
T1 construct: The cytoplasmic domain of the human KDR enzyme was cloned in the form of a GST fusion; GST; made in house; host or cells: SF21 insect cells (baculovirus)
Kind of series: KDR substrate phosphorylation inhibition, scintillation technique. Format: biochemical. Conditions: GST-KDR cytoplasmic domain, PLCγ substrate, 1 hour at 37° C.; read-out: KDR IC 50. The procedure:
The inhibitory effect of the compounds is determined in an in vitro test of phosphorylation of substrate with the enzyme KDR via a scintillation technique (96-well plate, NEN).
The cytoplasmic domain of the human KDR enzyme was cloned in the form of a GST fusion in the pFastBac baculovirus expression vector. The protein was expressed in the SF21 cells and purified to about 60% homogeneity.
The KDR kinase activity is measured in 20 mM MOPS, 10 mM MgCl2, 10 mM MnCl2, 1 mM DTT, 2.5 mM EGTA, 10 mM b-glycerophosphate, pH=7.2, in the presence of 10 mM MgCl2, 100 μm Na3VO4, 1 mM NaF. 10 μl of the compound are added to 70 μL of kinase buffer containing 100 ng of KDR enzyme at 4° C. The reaction is initiated by adding 20 μL of solution containing 2 μg of substrate (SH2-SH3 fragment of PLCγ expressed in the form of a GST fusion protein), 2 μCi of γ^33P[ATP] and 2 μm of cold ATP. After incubation for 1 hour at 37° C., the reaction is stopped by adding 1 volume (100 μl) of 200 mM EDTA. The incubation buffer is removed, and the wells are washed three times with 300 μL of PBS. The radioactivity in each well is measured using a Top Count NXT radioactivity counter (Packard).
The background is determined by measuring the radioactivity in four different wells containing radioactive ATP and the substrate alone.
A total activity control is measured in four different wells containing all the reagents (γ^33P-[ATP], KDR and substrate PLCγ), but in the absence of compound.
The inhibition of the KDR activity with the compound of the invention is expressed as a percentage of inhibition of the control activity determined in the absence of compound.
Compound SU5614 (Calbiochem) (1 μm) is included in each plate as an inhibition control.

Another series concerns the target T2, human FAK (Homo sapiens, UniProt Q05397).
T2 construct: The whole cDNA of human FAK, the N-terminal end of which has been labelled with histidine; made in house; host or cells: baculovirus expression system (pFastBac HTc)
In words: FAK autophosphorylation inhibition, time-resolved fluorescence test (HTRF). It counts as biochemical. The following applies: autophosphorylation of the enzyme, 15 μM ATP, 1 hour at 37° C.; read-out: FAK IC 50. As for the experimental part: The inhibitory activity of the compounds on FAK is determined by measuring the inhibition of autophosphorylation of the enzyme using a time-resolved fluorescence test (HTRF).
The whole cDNA of human FAK, the N-terminal end of which has been labelled with histidine, was cloned in a pFastBac HTc baculovirus expression vector. The protein was expressed and purified to about 70% homogeneity.
The kinase activity is determined by incubating the enzyme (6.6 μg/mL) with different concentrations of test compound in a 50 mM Hepes pH=7.2, 10 mM MgCl2, 100 μm Na3VO4, 15 μM ATP buffer for 1 hour at 37° C. The enzymatic reaction is stopped by adding Hepes pH=7.0 buffer containing 0.4 mM KF, 133 mM EDTA, 0.1% BSA and the labelling is performed, for 1 to 2 hours at room temperature, by adding to this buffer an anti-Histidine antibody labelled with XL665 and a tyrosine phosphospecific monoclonal antibody conjugated to europium cryptate (Eu-K). […] The long-lasting signal specific for XL-665 is measured in a Packard Discovery plate counter. All the tests are performed in duplicate and the average of the two tests is calculated. The inhibition of the autophosphorylation activity of FAK with compounds of the invention is expressed as a percentage of inhibition relative to a control whose activity is measured in the absence of test compound. […]

A further series has as its target T3, human Tie2 (Homo sapiens, UniProt Q02763).
T3 construct: amino acids of the intracellular domain 776-1124; made in house; host or cells: baculovirus expression system (pFastBacGT)
Kind of series: Tie2 phosphorylation of PLC inhibition, FlashPlate radioactivity. Format: biochemical. The following applies: GST-Tie2, GST-PLC substrate, one hour at 37° C.; read-out: TIE2 IC 50. The procedure:
The coding sequence of human Tie2 corresponding to the amino acids of the intracellular domain 776-1124 was generated by PCR using the cDNA isolated from a human placenta as a model. This sequence was introduced into a pFastBacGT baculovirus expression vector in the form of a GST fusion protein.
The inhibitory effect of the molecules is determined in a test of phosphorylation of PLC with Tie2 in the presence of GST-Tie2 purified to about 80% homogeneity. The substrate is composed of the SH2-SH3 fragments of PLC expressed in the form of a GST fusion protein.
The kinase activity of Tie2 is measured in a MOPS 20 mM pH 7.2 buffer, containing 10 mM MgCl2, 10 mM MnCl2, 1 mM DTT, 10 mM of glycerophosphate. In a 96-well FlashPlate plate maintained on ice, a reaction mixture is deposited, composed of 70 μL of kinase buffer containing 100 ng of enzyme GST-Tie2 per well. Next, 10 μL of the test molecule diluted in DMSO to a maximum concentration of 10% are added. For a given concentration, each measurement is performed four times. The reaction is initiated by adding 20 μL of solution containing 2 μg of GST-PLC, 2 μm of cold ATP and 1 μCi of ^33P[ATP]. After incubation for one hour at 37° C., the reaction is stopped by adding 1 volume (100 μl) of EDTA 200 mM. After removal of the incubation buffer, the wells are washed three times with 300 μL of PBS. The radioactivity is measured on a MicroBeta1450 Wallac.
The inhibition of the Tie2 activity is calculated and expressed as a percentage of inhibition relative to the control activity determined in the absence of compound.

T1 sequence (P35968 786-1356 limits assumed): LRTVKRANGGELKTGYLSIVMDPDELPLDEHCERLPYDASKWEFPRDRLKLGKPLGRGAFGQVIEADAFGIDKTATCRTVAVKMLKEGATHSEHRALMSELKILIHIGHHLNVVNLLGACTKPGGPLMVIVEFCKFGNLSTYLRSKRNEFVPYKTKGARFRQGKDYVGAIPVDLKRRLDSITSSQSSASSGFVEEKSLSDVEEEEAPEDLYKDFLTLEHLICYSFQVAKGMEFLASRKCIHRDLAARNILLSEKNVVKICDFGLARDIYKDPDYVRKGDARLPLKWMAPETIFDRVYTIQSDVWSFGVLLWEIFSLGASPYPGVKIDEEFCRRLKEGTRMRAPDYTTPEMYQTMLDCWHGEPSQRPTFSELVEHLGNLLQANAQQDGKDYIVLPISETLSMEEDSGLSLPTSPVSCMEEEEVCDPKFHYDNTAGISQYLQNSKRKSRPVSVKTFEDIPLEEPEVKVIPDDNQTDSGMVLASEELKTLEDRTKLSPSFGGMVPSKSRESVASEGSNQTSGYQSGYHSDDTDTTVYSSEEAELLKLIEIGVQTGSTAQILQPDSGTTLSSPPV
T3 sequence (Q02763 776-1124): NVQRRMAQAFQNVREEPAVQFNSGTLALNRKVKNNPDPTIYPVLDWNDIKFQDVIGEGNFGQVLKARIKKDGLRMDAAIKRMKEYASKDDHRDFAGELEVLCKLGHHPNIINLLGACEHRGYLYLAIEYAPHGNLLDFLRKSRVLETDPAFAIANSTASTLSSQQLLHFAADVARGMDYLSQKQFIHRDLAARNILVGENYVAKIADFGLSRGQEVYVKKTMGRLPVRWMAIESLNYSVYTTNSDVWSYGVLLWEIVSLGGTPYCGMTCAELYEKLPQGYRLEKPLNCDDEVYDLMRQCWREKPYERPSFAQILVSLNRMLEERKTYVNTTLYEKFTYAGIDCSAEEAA
T2 sequence (Q05397 whole entry): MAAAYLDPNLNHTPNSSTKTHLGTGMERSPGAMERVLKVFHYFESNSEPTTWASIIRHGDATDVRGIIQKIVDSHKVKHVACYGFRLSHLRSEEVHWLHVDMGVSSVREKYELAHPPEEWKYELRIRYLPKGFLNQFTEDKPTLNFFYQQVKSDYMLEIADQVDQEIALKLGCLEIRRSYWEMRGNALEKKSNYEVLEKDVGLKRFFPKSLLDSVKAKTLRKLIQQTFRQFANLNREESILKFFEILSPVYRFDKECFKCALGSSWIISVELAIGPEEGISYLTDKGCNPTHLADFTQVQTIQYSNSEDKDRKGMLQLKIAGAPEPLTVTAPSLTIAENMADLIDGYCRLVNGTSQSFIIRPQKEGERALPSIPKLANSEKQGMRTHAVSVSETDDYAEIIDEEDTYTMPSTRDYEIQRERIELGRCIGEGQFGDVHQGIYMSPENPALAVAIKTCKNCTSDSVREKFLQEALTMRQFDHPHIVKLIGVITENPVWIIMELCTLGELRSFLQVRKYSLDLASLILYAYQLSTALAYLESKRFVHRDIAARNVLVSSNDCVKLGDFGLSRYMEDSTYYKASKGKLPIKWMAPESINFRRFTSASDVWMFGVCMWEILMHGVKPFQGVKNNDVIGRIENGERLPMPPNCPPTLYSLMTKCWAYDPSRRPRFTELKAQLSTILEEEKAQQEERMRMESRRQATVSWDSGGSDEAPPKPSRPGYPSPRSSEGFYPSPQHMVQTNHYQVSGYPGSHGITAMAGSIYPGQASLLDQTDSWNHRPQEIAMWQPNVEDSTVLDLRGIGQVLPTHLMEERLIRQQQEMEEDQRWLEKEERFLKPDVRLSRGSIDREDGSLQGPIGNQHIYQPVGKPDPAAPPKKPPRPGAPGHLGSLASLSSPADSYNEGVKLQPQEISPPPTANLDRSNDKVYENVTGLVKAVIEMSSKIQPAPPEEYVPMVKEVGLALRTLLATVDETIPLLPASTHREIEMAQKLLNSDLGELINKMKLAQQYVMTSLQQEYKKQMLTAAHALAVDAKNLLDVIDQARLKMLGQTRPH

Regarding `Cl.NC(=O)c1[nH]cc(N)c1-c1ccc(NC(=O)Nc2cc(C(F)(F)F)ccc2F)cc1`, the melting point is ~ 174 °C.

In the case of `NC(=O)c1[nH]ccc1-c1ccc(NC(=O)Nc2cc(C(F)(F)F)ccc2F)cc1` [Example 1, 3-{4-[3-(2-Fluoro-5-trifluoromethylphenyl)ureido]phenyl}-1H-pyrrole-2-carboxamide], the IC50 at human KDR enzyme amounted to 115 nM; at human FAK, 2380 nM; on human Tie2, 13 nM.

With `NC(=O)c1[nH]cc(NC(=O)Nc2cc(C(F)(F)F)ccc2F)c1-c1ccc(NC(=O)Nc2cc(C(F)(F)F)ccc2F)cc1` [Example 4, 4-[3-(2-Fluoro-5-trifluoromethylphenyl)ureido]-3-{4-[3-(2-fluoro-5-trifluoro-methylphenyl)ureido]phenyl}-1H-pyrrole-2-carboxamide], the IC50 at human KDR enzyme came out at 352 nM; on human Tie2, 111 nM.

Consider `CC(=O)Nc1c[nH]c(C(N)=O)c1-c1ccc(NC(=O)Nc2cc(C(F)(F)F)ccc2F)cc1` [Example 5, 4-Acetylamino-3-{4-[3-(2-fluoro-5-trifluoromethylphenyl)ureido]phenyl}-1H-pyrrole-2-carboxamide], for which the melting point is 228.5 °C.

`CN(C)CC(=O)Nc1c[nH]c(C(N)=O)c1-c1ccc(NC(=O)Nc2cc(C(F)(F)F)ccc2F)cc1` [Example 6, 4-(2-Dimethylaminoacetylamino)-3-{4-[3-(2-fluoro-5-trifluoromethylphenyl)-ureido]phenyl}-1H-pyrrole-2-carboxamide] gave a melting point of 178 °C.

Turning to `NC(=O)c1[nH]cc(NC(=O)c2ccccc2)c1-c1ccc(NC(=O)Nc2cc(C(F)(F)F)ccc2F)cc1` [Example 7, 4-Benzoylamino-3-{4-[3-(2-fluoro-5-trifluoromethylphenyl)ureido]phenyl}-1H-pyrrole-2-carboxamide], the melting point was found to be 239.7 °C.

Regarding `CCOC(=O)c1c[nH]c(C(N)=O)c1-c1ccc(NC(=O)Nc2cc(C(F)(F)F)ccc2F)cc1` [Example 9, Ethyl 5-carbamoyl-4-{4-[3-(2-fluoro-5-trifluoromethylphenyl)ureido]phenyl}-1H-pyrrole-3-carboxylate], the melting point came to 179 °C. Moreover, the IC50 at human KDR enzyme stood at 23 nM. Also, the IC50 on human Tie2 was determined as 4 nM.

Compound `NC(=O)c1[nH]cc(C(=O)O)c1-c1ccc(NC(=O)Nc2cc(C(F)(F)F)ccc2F)cc1` [Example 38, 5-Carbamoyl-4-{4-[3-(2-fluoro-5-trifluoromethylphenyl)ureido]phenyl}-1H-pyrrole-3-carboxylic acid] returned a melting point of 194 °C.

In the case of `NC(=O)c1c[nH]c(C(N)=O)c1-c1ccc(NC(=O)Nc2cc(C(F)(F)F)ccc2F)cc1` [Example 40, 3-{4-[3-(2-Fluoro-5-trifluoromethylphenyl)ureido]phenyl}-1H-pyrrole-2,4-dicarboxamide], the melting point was found to be 196 °C.

As for `NC(=O)c1[nH]cc(Cl)c1-c1ccc(NC(=O)Nc2cc(C(F)(F)F)ccc2F)cc1` [Example 44, 4-Chloro-3-{4-[3-(2-fluoro-5-trifluoromethylphenyl)ureido]phenyl}-1H-pyrrole-2-carboxamide], the IC50 on human KDR enzyme was found to be 27 nM; on human Tie2 it was 7 nM.

Compound `NC(=O)c1[nH]cnc1-c1ccc(NC(=O)Nc2cc(C(F)(F)F)ccc2F)cc1` [Example 46, 5-{4-[3-(2-Fluoro-5-trifluoromethylphenyl)ureido]phenyl}-3H-imidazole-4-carboxamide] showed a melting point of 325 °C.
